Values quoted from earlier work, collected in US6559178B1 (priority 2002, dated 2003).

System: cancer
Conditions: Phase II testing

CC(=O)OC[C@]12CCC(C)=C[C@H]1O[C@@H]1[C@H](O)[C@@H](OC(C)=O)[C@@]2(C)[C@]12CO2 [Anguidine]
hematologic toxicity: considerable hematologic toxicity | tumor response: low tumor response
